Experimental data reported in PubChem BioAssay (NCI).
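Cultured in 96-well plates, cells were exposed to test compound for 48 hours across five concentrations. TGI: total growth inhibition.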

Columns and labels:
Experiment in all cases: NCI tumour cell line growth inhibition, 48 h
HL-60(TB) leukemia = test system: HL-60(TB) leukemia
BT-549 breast = test system: BT-549 breast
T-47D breast = test system: T-47D breast
NCI/ADR-RES ovarian = test system: NCI/ADR-RES ovarian
NCI-H522 lung = test system: NCI-H522 lung
UACC-62 melanoma = test system: UACC-62 melanoma
HT29 colon = test system: HT29 colon
MCF7 breast = test system: MCF7 breast
DU-145 prostate = test system: DU-145 prostate
HOP-92 NSCLC = test system: HOP-92 NSCLC
SNB-19 CNS = test system: SNB-19 CNS
M14 melanoma = test system: M14 melanoma
IGROV1 ovarian = test system: IGROV1 ovarian
SK-MEL-2 melanoma = test system: SK-MEL-2 melanoma
MDA-MB-231 breast = test system: MDA-MB-231 breast
HCT-116 colon = test system: HCT-116 colon
HOP-62 NSCLC = test system: HOP-62 NSCLC
EKVX NSCLC = test system: EKVX NSCLC
CAKI-1 renal = test system: CAKI-1 renal
HCT-15 colon = test system: HCT-15 colon
MDA-N = test system: MDA-N
OVCAR-5 ovarian = test system: OVCAR-5 ovarian
SF-539 CNS = test system: SF-539 CNS
786-0 renal = test system: 786-0 renal
LOX IMVI melanoma = test system: LOX IMVI melanoma
CCRF-CEM leukemia = test system: CCRF-CEM leukemia
SK-MEL-5 melanoma = test system: SK-MEL-5 melanoma
SN12C renal = test system: SN12C renal
SF-268 CNS = test system: SF-268 CNS
COLO 205 colon = test system: COLO 205 colon
HCC-2998 colon = test system: HCC-2998 colon
U251 CNS = test system: U251 CNS
NCI-H226 lung = test system: NCI-H226 lung
RPMI-8226 leukemia = test system: RPMI-8226 leukemia
HS 578T breast = test system: HS 578T breast
TK-10 renal = test system: TK-10 renal
SF-295 CNS = test system: SF-295 CNS
MDA-MB-435 = test system: MDA-MB-435
PC-3 prostate = test system: PC-3 prostate
UO-31 renal = test system: UO-31 renal
A498 renal = test system: A498 renal
MOLT-4 leukemia = test system: MOLT-4 leukemia
OVCAR-3 ovarian = test system: OVCAR-3 ovarian
SW-620 colon = test system: SW-620 colon
NCI-H23 lung = test system: NCI-H23 lung
UACC-257 melanoma = test system: UACC-257 melanoma
RXF 393 renal = test system: RXF 393 renal
SK-OV-3 ovarian = test system: SK-OV-3 ovarian
SR leukemia = test system: SR leukemia
MALME-3M melanoma = test system: MALME-3M melanoma
OVCAR-8 ovarian = test system: OVCAR-8 ovarian
OVCAR-4 ovarian = test system: OVCAR-4 ovarian
SNB-75 CNS = test system: SNB-75 CNS
KM12 colon = test system: KM12 colon
A549 NSCLC = test system: A549 NSCLC
SK-MEL-28 melanoma = test system: SK-MEL-28 melanoma
ACHN renal = test system: ACHN renal
K-562 leukemia = test system: K-562 leukemia
NCI-H460 lung = test system: NCI-H460 lung

Q: `C/C=C/COc1cc(NC(=S)c2ccoc2C)ccc1OC` was tested. Which TGI (HL-60(TB) leukemia) did it give?
A: Its TGI is over 100 µM.

Q: What about the TGI (BT-549 breast) of the same molecule?
A: The TGI was over 100 µM.

Q: And the TGI (T-47D breast)?
A: Its TGI is over 100 µM.

Q: What about the TGI (NCI/ADR-RES ovarian) of the same molecule?
A: Its TGI is over 100 µM.

Q: And the TGI (NCI-H522 lung)?
A: The TGI was over 100 µM.

Q: And the TGI (UACC-62 melanoma)?
A: The TGI was over 100 µM.

Q: And the TGI (HT29 colon)?
A: The TGI was over 100 µM.

Q: What about the TGI (MCF7 breast) of the same molecule?
A: The TGI was over 100 µM.

Q: What about the TGI (DU-145 prostate) of the same molecule?
A: The TGI was over 100 µM.

Q: And the TGI (HOP-92 NSCLC)?
A: Its TGI is over 100 µM.

Q: And the TGI (SNB-19 CNS)?
A: The TGI was over 100 µM.

Q: What about the TGI (M14 melanoma) of the same molecule?
A: The TGI was over 100 µM.

Q: And the TGI (IGROV1 ovarian)?
A: Its TGI is over 100 µM.

Q: What about the TGI (SK-MEL-2 melanoma) of the same molecule?
A: The TGI was over 100 µM.

Q: What about the TGI (MDA-MB-231 breast) of the same molecule?
A: The TGI was over 100 µM.

Q: What about the TGI (HCT-116 colon) of the same molecule?
A: Its TGI is over 100 µM.

Q: What about the TGI (HOP-62 NSCLC) of the same molecule?
A: The TGI was over 100 µM.

Q: What about the TGI (EKVX NSCLC) of the same molecule?
A: Its TGI is over 100 µM.

Q: And the TGI (CAKI-1 renal)?
A: Its TGI is over 100 µM.

Q: And the TGI (HCT-15 colon)?
A: Its TGI is over 100 µM.

Q: And the TGI (MDA-N)?
A: The TGI was over 100 µM.

Q: And the TGI (OVCAR-5 ovarian)?
A: Its TGI is over 100 µM.

Q: What about the TGI (SF-539 CNS) of the same molecule?
A: Its TGI is over 100 µM.

Q: What about the TGI (786-0 renal) of the same molecule?
A: Its TGI is over 100 µM.

Q: What about the TGI (LOX IMVI melanoma) of the same molecule?
A: The TGI was over 100 µM.

Q: And the TGI (CCRF-CEM leukemia)?
A: The TGI was over 100 µM.

Q: And the TGI (SK-MEL-5 melanoma)?
A: Its TGI is over 100 µM.

Q: What about the TGI (SN12C renal) of the same molecule?
A: The TGI was over 100 µM.

Q: What about the TGI (SF-268 CNS) of the same molecule?
A: The TGI was over 100 µM.

Q: What about the TGI (COLO 205 colon) of the same molecule?
A: Its TGI is over 100 µM.

Q: What about the TGI (HCC-2998 colon) of the same molecule?
A: The TGI was over 100 µM.

Q: What about the TGI (U251 CNS) of the same molecule?
A: Its TGI is over 100 µM.

Q: And the TGI (NCI-H226 lung)?
A: Its TGI is over 100 µM.

Q: And the TGI (RPMI-8226 leukemia)?
A: Its TGI is 76.7 µM.

Q: And the TGI (HS 578T breast)?
A: Its TGI is 90.7 µM.

Q: What about the TGI (TK-10 renal) of the same molecule?
A: The TGI was over 100 µM.

Q: What about the TGI (SF-295 CNS) of the same molecule?
A: Its TGI is over 100 µM.

Q: What about the TGI (MDA-MB-435) of the same molecule?
A: Its TGI is over 100 µM.

Q: What about the TGI (PC-3 prostate) of the same molecule?
A: The TGI was over 100 µM.

Q: What about the TGI (UO-31 renal) of the same molecule?
A: Its TGI is over 100 µM.

Q: And the TGI (A498 renal)?
A: The TGI was over 100 µM.

Q: What about the TGI (MOLT-4 leukemia) of the same molecule?
A: The TGI was over 100 µM.

Q: What about the TGI (OVCAR-3 ovarian) of the same molecule?
A: Its TGI is over 100 µM.

Q: And the TGI (SW-620 colon)?
A: Its TGI is over 100 µM.

Q: What about the TGI (NCI-H23 lung) of the same molecule?
A: Its TGI is over 100 µM.

Q: What about the TGI (UACC-257 melanoma) of the same molecule?
A: The TGI was over 100 µM.

Q: What about the TGI (RXF 393 renal) of the same molecule?
A: The TGI was over 100 µM.

Q: What about the TGI (SK-OV-3 ovarian) of the same molecule?
A: Its TGI is over 100 µM.

Q: What about the TGI (SR leukemia) of the same molecule?
A: The TGI was over 100 µM.

Q: What about the TGI (MALME-3M melanoma) of the same molecule?
A: Its TGI is over 100 µM.

Q: And the TGI (OVCAR-8 ovarian)?
A: The TGI was over 100 µM.

Q: What about the TGI (OVCAR-4 ovarian) of the same molecule?
A: Its TGI is over 100 µM.

Q: And the TGI (SNB-75 CNS)?
A: Its TGI is over 100 µM.

Q: What about the TGI (KM12 colon) of the same molecule?
A: Its TGI is over 100 µM.

Q: And the TGI (A549 NSCLC)?
A: The TGI was over 100 µM.

Q: What about the TGI (SK-MEL-28 melanoma) of the same molecule?
A: The TGI was over 100 µM.

Q: What does the source list for `COC(=O)c1cccc2c1Oc1ccccc1S2`?
A: TGI (HL-60(TB) leukemia): 28.9 µM; TGI (BT-549 breast): > 100 µM; TGI (T-47D breast): > 100 µM; TGI (NCI/ADR-RES ovarian): > 100 µM; TGI (NCI-H522 lung): > 100 µM; TGI (UACC-62 melanoma): > 100 µM; TGI (HT29 colon): 75.2 µM; TGI (MCF7 breast): > 100 µM; TGI (DU-145 prostate): > 100 µM; TGI (ACHN renal): > 100 µM; TGI (K-562 leukemia): > 100 µM; TGI (HOP-92 NSCLC): > 100 µM; TGI (SNB-19 CNS): > 100 µM; TGI (M14 melanoma): > 100 µM; TGI (IGROV1 ovarian): > 100 µM; TGI (SK-MEL-2 melanoma): > 100 µM; TGI (MDA-MB-231 breast): > 100 µM; TGI (HCT-116 colon): > 100 µM; TGI (HOP-62 NSCLC): > 100 µM; TGI (EKVX NSCLC): > 100 µM; TGI (CAKI-1 renal): 65.1 µM; TGI (HCT-15 colon): > 100 µM; TGI (MDA-N): > 100 µM; TGI (OVCAR-5 ovarian): > 100 µM; TGI (SF-539 CNS): > 100 µM; TGI (786-0 renal): > 100 µM; TGI (LOX IMVI melanoma): > 100 µM; TGI (CCRF-CEM leukemia): 56.9 µM; TGI (SK-MEL-5 melanoma): 54.9 µM; TGI (SN12C renal): > 100 µM; TGI (SF-268 CNS): > 100 µM; TGI (COLO 205 colon): 79.4 µM; TGI (NCI-H460 lung): > 100 µM; TGI (U251 CNS): > 100 µM; TGI (NCI-H226 lung): > 100 µM; TGI (RPMI-8226 leukemia): > 100 µM; TGI (HS 578T breast): > 100 µM; TGI (TK-10 renal): > 100 µM; TGI (SF-295 CNS): > 100 µM; TGI (MDA-MB-435): > 100 µM; TGI (PC-3 prostate): > 100 µM; TGI (UO-31 renal): > 100 µM; TGI (A498 renal): > 100 µM; TGI (MOLT-4 leukemia): 70 µM; TGI (OVCAR-3 ovarian): > 100 µM; TGI (SW-620 colon): > 100 µM; TGI (UACC-257 melanoma): > 100 µM; TGI (RXF 393 renal): > 100 µM; TGI (SK-OV-3 ovarian): > 100 µM; TGI (SR leukemia): > 100 µM; TGI (OVCAR-8 ovarian): > 100 µM; TGI (OVCAR-4 ovarian): > 100 µM; TGI (SNB-75 CNS): 71.1 µM; TGI (KM12 colon): 36.4 µM; TGI (A549 NSCLC): > 100 µM; TGI (SK-MEL-28 melanoma): > 100 µM
